One block for each compound: values may come before it. Peptide text beside a SMILES is read from it.
Tests used:
GRPR = molecular target: T1, GRPR (Homo sapiens, UniProt P30550); test: In vitro competition binding assay, displacement of [^125I-Tyr^4]bombesin on GRPR-expressing PC-3 cells; settings: n = 2-3, read-out: Binding affinities Ki Mean
T1 construct: endogenous in cells; host or cells: PC-3 prostate cancer cells
Protocol: PC-3 cells were seeded at 2×10^5 cells/well in 24-well poly-D-lysine plates 24-48 hours prior to the experiment. The growth medium was replaced by 400 μL of reaction medium (RPMI 1640 containing 2 mg/mL BSA, 4.8 mg/mL HEPES, 1 U/mL penicillin G and 1 μg/mL streptomycin). Cells were incubated for 30-60 min at 37° C. […] The cells were incubated with moderate agitation for 1 h at 27° C., washed twice with ice-cold PBS, harvested by trypsinization, and measured for radioactivity on the gamma counter. Data were analyzed using nonlinear regression (one binding site model for competition assay) with GraphPad Prism 8.
In vitro competition binding assays were performed according to the procedure outlined in Example 1.

in vivo = settings: male, NRG, mouse, iv, total radioactivity
Protocol: (§1) All imaging and biodistribution studies were performed using male NOD.Cg-Rag1^tm1MoM II2rg^tm1WI/SzJ (NRG) mice and conducted according to the guidelines established by the Canadian Council on Animal Care and approved by Animal Ethics Committee of the University of British Columbia. For tumor inoculations, mice were anesthetized by inhalation with 2% isoflurane in oxygen and implanted subcutaneously with 5×10^6 PC-3 cells below the left shoulder. Imaging and biodistribution studies were performed only after tumors grew to 5-8 mm in diameter.
(§2) For PET/CT imaging studies, ˜3-4 MBq of the ^68Ga-labeled tracer was injected through the tail vein. Mice were allowed to recover and roam freely in the cages after injecting the tracer. At 45 min post-injection (p.i.), mice were sedated again and positioned on the scanner. First, a 10 min CT scan was conducted for localization and attenuation correction for reconstruction of PET images, before a 10 min PET image was acquired. Heating pads were used during the entire procedure to keep the mice warm. For ex vivo biodistribution studies, mice were injected with ˜1.5-3 MBq of the ^68Ga-labeled tracer. At 1 h p.i., mice were euthanized, blood was drawn from heart, and organs/tissues of interest were collected, rinsed with PBS, blotted dry, weighed, and counted using an automated gamma counter. The uptake in each organ/tissue was normalized to the injected dose and expressed as the percentage of the injected dose per gram of tissue (% ID/g).
(§3) All imaging and biodistribution studies were performed using male NOD.Cg-Rag1tm1Mom II2rgtm1WjI/SzJ (NRG) mice and conducted according to the guidelines established by the Canadian Council on Animal Care and approved by Animal Ethics Committee of the University of British Columbia. For tumor inoculations, mice were anesthetized by inhalation with 2% isoflurane in oxygen and implanted subcutaneously with 5×10^6 PC-3 cells below the left shoulder. Imaging and biodistribution studies were performed only after tumors grew to 5-8 mm in diameter.
(§4) For PET/CT imaging studies, ˜5 MBq of the ^68Ga-labeled tracer was injected through the tail vein. Mice were allowed to recover and roam freely in the cages after injecting the tracer. At 45 min post-injection (p.i.), mice were sedated again and positioned on the scanner. First, a 10 min CT scan was conducted for localization and attenuation correction for reconstruction of PET images, before a 10 min PET image was acquired. Heating pads were used during the entire procedure to keep the mice warm. For ex vivo biodistribution studies, mice were injected with ˜3 MBq of the 68Ga-labeled tracer. At 1 h p.i., mice were euthanized, blood was drawn from heart, and organs/tissues of interest were collected, rinsed with PBS, blotted dry, weighed, and counted using an automated gamma counter.

[1] = Ex vivo biodistribution in PC-3 tumor-bearing mice; settings: male, NRG, mouse, iv, total radioactivity, 1 h post-injection, mice bearing PC-3 tumor xenografts, n = 4
Protocol: as §1, §2, §3, §4

[2] = Biodistribution Large Intestine Mean
[3] = Biodistribution Small Intestine Mean
[4] = seminal, Biodistribution Seminal Mean

T1 sequence (P30550 whole entry): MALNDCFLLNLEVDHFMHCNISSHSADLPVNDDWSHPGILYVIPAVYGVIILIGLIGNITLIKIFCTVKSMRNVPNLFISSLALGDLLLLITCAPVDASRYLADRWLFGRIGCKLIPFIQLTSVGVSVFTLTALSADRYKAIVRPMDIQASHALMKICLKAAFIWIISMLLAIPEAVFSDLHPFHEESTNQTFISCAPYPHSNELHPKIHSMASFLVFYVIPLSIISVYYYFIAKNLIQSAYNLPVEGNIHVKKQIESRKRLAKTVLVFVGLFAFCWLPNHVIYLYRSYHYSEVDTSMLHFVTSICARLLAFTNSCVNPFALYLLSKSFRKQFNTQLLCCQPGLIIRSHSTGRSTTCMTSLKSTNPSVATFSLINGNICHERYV

Ki (GRPR): 3.56 nM
SMILES: CC(C)C[C@H](NC(=O)[C@H](Cc1cnc[nH]1)NC(=O)CNC(=O)[C@@H](NC(=O)[C@H](C)NC(=O)[C@H](Cc1c[nH]c2ccccc12)NC(=O)[C@H](CCC(N)=O)NC(=O)[C@H](N)Cc1ccccc1)C(C)(C)C)C(=O)N1CSC[C@H]1C(N)=O [LW01080, D-Phe-Gln-Trp-Ala-Tle-Gly-His-Leu-Thz-NH2]

Ki (GRPR): 11.5 nM
SMILES: Cc1[nH]c2ccccc2c1C[C@H](NC(=O)[C@H](CCC(N)=O)NC(=O)[C@H](N)Cc1ccccc1)C(=O)N[C@@H](C)C(=O)N[C@H](C(=O)NCC(=O)N[C@@H](Cc1c[nH]cn1)C(=O)N[C@@H](CC(C)C)C(=O)N1CSC[C@H]1C(N)=O)C(C)C [LW02009, D-Phe-Gln-2-Me-Trp-Ala-Val-Gly-His-Leu-Thz-NH2]

Ki (GRPR): 46.9 nM
SMILES: CC(C)C[C@H](NC(=O)[C@H](Cc1c[nH]cn1)NC(=O)CNC(=O)[C@@H](NC(=O)[C@H](C)NC(=O)[C@H](Cc1c[nH]c2cc(F)ccc12)NC(=O)[C@H](CCC(N)=O)NC(=O)[C@H](N)Cc1ccccc1)C(C)C)C(=O)N1CSC[C@H]1C(N)=O [LW01175]

Ki (GRPR): 53.1 nM
SMILES: CC(C)C[C@H](NC(=O)[C@H](Cc1c[nH]cn1)NC(=O)CNC(=O)[C@@H](NC(=O)[C@H](C)NC(=O)[C@H](Cc1csc2ccccc12)NC(=O)[C@H](CCC(N)=O)NC(=O)[C@H](N)Cc1ccccc1)C(C)C)C(=O)N1CSC[C@H]1C(N)=O [LW02015] (HELM PEPTIDE1{[dF].Q.[O=C([C@H](Cc1csc2ccccc12)N[*:1])[*:2]].A.V.G.H.L.[O=C([C@@H]1CSCN1[*:1])[*:2]].[am]}$$$$V2.0)

tissue uptake at 1 h (in vivo; Biodistribution Adrenal Mean): 1.51 %ID/g
tissue uptake at 1 h (in vivo; Biodistribution Blood Mean): 0.59 %ID/g
tissue uptake at 1 h (in vivo; Biodistribution Bone Mean): 0.15 %ID/g
tissue uptake at 1 h (in vivo; Biodistribution Brain Mean): 0.02 %ID/g
tissue uptake at 1 h (in vivo; Biodistribution Fat Mean): 0.06 %ID/g
tissue uptake at 1 h (in vivo; Biodistribution Heart Mean): 0.18 %ID/g
tissue uptake at 1 h (in vivo; Biodistribution Kidneys Mean): 2.47 %ID/g
tissue uptake at 1 h (in vivo; [2]): 1.31 %ID/g
tissue uptake at 1 h (in vivo; Biodistribution Liver Mean): 0.35 %ID/g
tissue uptake at 1 h (in vivo; Biodistribution Lungs Mean): 0.49 %ID/g
tissue uptake at 1 h (in vivo; Biodistribution Muscle Mean): 0.17 %ID/g
tissue uptake at 1 h (in vivo; Biodistribution PC3 tumor Mean): 5.9 %ID/g
tissue uptake at 1 h (in vivo; Biodistribution Pancreas Mean): 9.32 %ID/g
tissue uptake at 1 h (in vivo; [3]): 2.29 %ID/g
tissue uptake at 1 h (in vivo; Biodistribution Spleen Mean): 0.4 %ID/g
tissue uptake at 1 h (in vivo; Biodistribution Stomach Mean): 0.89 %ID/g
tissue uptake at 1 h (in vivo; Biodistribution Testes Mean): 0.16 %ID/g
tissue uptake at 1 h [1, 4]: 0.11 %ID/g
SMILES: CC(C)C[C@H](NC(=O)[C@H](Cc1c[nH]cn1)NC(=O)CNC(=O)[C@@H](NC(=O)[C@H](C)NC(=O)[C@H](Cc1c[nH]c2ccccc12)NC(=O)[C@H](CCC(N)=O)NC(=O)[C@@H](Cc1ccccc1)NC(=O)CN1CCC(NC(=O)CN2CCN(CC(=O)O)CCN(CC(=O)O)CCN(CC(=O)O)CC2)CC1)C(C)(C)C)C(=O)N1CSC[C@H]1C(N)=O [^68Ga-LW01108, metal not drawn]

Ki (GRPR): > 400 nM
SMILES: CC(C)C[C@@H](CN1CSC[C@H]1C(N)=O)NC(=O)[C@H](Cc1c[nH]cn1)NC(=O)CNC(=O)[C@@H](NC(=O)[C@H](C)NC(=O)[C@H](Cc1c[nH]c2ccccc12)NC(=O)[C@H](CCC(N)=O)NC(=O)[C@H]1Cc2c([nH]c3ccccc23)CN1C(=O)CN1CCC(NC(=O)CN2CCN(CC(=O)O)CCN(CC(=O)O)CCN(CC(=O)O)CC2)CC1)C(C)C [LW01061, DOTA-Pip-D-Tpi-Gln-Trp-Ala-Val-Gly-His-Leu-ψ-Thz-NH2]

tissue uptake at 1 h (in vivo; Biodistribution Blood Mean): 0.3 %ID/g
tissue uptake at 1 h (in vivo; Biodistribution Bone Mean): 0.06 %ID/g
tissue uptake at 1 h (in vivo; Biodistribution Brain Mean): 0.01 %ID/g
tissue uptake at 1 h (in vivo; Biodistribution Fat Mean): 0.05 %ID/g
tissue uptake at 1 h (in vivo; Biodistribution Heart Mean): 0.11 %ID/g
tissue uptake at 1 h (in vivo; Biodistribution Kidneys Mean): 1.88 %ID/g
tissue uptake at 1 h (in vivo; [2]): 0.18 %ID/g
tissue uptake at 1 h (in vivo; Biodistribution Liver Mean): 0.32 %ID/g
tissue uptake at 1 h (in vivo; Biodistribution Lungs Mean): 0.28 %ID/g
tissue uptake at 1 h (in vivo; Biodistribution PC3 tumor Mean): 7.05 %ID/g
tissue uptake at 1 h (in vivo; Biodistribution Pancreas Mean): 0.39 %ID/g
tissue uptake at 1 h (in vivo; [3]): 0.31 %ID/g
tissue uptake at 1 h (in vivo; Biodistribution Spleen Mean): 0.13 %ID/g
tissue uptake at 1 h (in vivo; Biodistribution Stomach Mean): 0.07 %ID/g
tissue uptake at 1 h (in vivo; Biodistribution Testes Mean): 0.1 %ID/g
tissue uptake at 1 h ([1]; adrenal, Biodistribution Adrenal Mean): 0.32 %ID/g
tissue uptake at 1 h ([1]; muscle, Biodistribution Muscle Mean): 0.07 %ID/g
tissue uptake at 1 h [1, 4]: 0.04 %ID/g
SMILES: CC(C)C[C@H](NC(=O)[C@H](Cc1c[nH]cn1)N(C)C(=O)CNC(=O)[C@@H](NC(=O)[C@H](C)NC(=O)[C@H](Cc1c[nH]c2ccccc12)NC(=O)[C@H](CCC(N)=O)NC(=O)[C@@H](Cc1ccccc1)NC(=O)CN1CCC(NC(=O)CN2CCN(CC(=O)O)CCN(CC(=O)O)CCN(CC(=O)O)CC2)CC1)C(C)C)C(=O)N1CSC[C@H]1C(N)=O [^68Ga-LW01107, metal not drawn]

Ki (GRPR): 17.9 nM
SMILES: CC(C)C[C@H](NC(=O)[C@H](Cc1c[nH]cn1)NC(=O)CNC(=O)[C@@H](NC(=O)[C@H](C)NC(=O)[C@H](Cc1c[nH]c2ccc(F)cc12)NC(=O)[C@H](CCC(N)=O)NC(=O)[C@H](N)Cc1ccccc1)C(C)C)C(=O)N1CSC[C@H]1C(N)=O [LW01166]

Ki (GRPR): 43.4 nM
SMILES: CC(C)C[C@H](NC(=O)[C@H](Cc1c[nH]cn1)NC(=O)CNC(=O)[C@@H](NC(=O)[C@H](C)NC(=O)[C@H](Cc1c[nH]c2cccc(F)c12)NC(=O)[C@H](CCC(N)=O)NC(=O)[C@H](N)Cc1ccccc1)C(C)C)C(=O)N1CSC[C@H]1C(N)=O [LW01180]

Reference: patent US12246076B2, “Radiolabeled compounds for in vivo imaging of gastrin-releasing peptide receptor (GRPR) and treatment of GRPR-related disorders” (PROVINCIAL HEALTH SERVICES AUTHORITY, priority 2022, dated 2025)
